Data on 1 compound can be found in US9993449B2, “(S)-3-amino-4-(difluoromethylenyl)cyclopent-1-ene-1-carboxylic acid, and related compounds as GABA aminotransferase inactivators for the treatment of epilepsy, addiction and hepatocellular carcinoma” (NORTHWESTERN UNIVERSITY, priority 2015, dated 2018).

One data set deals with T1, CYP1A (Homo sapiens, UniProt P05177).
T1 construct: tissue Eurofins Panlabs; host or cells: human liver microsomes
T1 sequence (P05177 1-516): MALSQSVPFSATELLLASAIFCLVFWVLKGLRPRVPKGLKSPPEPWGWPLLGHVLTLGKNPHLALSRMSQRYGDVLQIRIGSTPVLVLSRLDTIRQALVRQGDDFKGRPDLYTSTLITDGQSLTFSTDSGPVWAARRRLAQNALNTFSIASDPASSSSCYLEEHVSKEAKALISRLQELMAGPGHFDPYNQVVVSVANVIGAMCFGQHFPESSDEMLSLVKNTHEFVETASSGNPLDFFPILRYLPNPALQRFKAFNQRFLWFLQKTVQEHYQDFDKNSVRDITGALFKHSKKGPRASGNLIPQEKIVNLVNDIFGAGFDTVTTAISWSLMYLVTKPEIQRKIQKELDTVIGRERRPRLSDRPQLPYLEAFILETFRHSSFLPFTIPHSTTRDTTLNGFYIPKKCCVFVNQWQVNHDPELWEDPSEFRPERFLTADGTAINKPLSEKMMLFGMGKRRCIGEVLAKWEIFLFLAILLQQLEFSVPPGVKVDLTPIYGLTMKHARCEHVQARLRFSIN
The data set is described as follows: CYP1A inhibition (HLM, phenacetin substrate). The data set is classed as in vitro ADME. The conditions noted are these: 10 μM, 10 min at 37° C. As to the method:
(§1) Inhibition of Microsomal Cytochromes P450. The experiments were performed by Eurofins Panlabs (Redmond, Wash. 98052, USA). CYP1A inhibition (HLM, phenacetin substrate), CYP2B6 inhibition (HLM, bupropion substrate), CYP2C8 inhibition (HLM, paclitaxel substrate), CYP2C9 inhibition (HLM, diclofenac substrate), CYP2C19 inhibition (HLM, omeprazole substrate), CYP2D6 inhibition (HLM, dextromethorphan substrate), and CYP3A inhibition (HLM, midazolam and testosterone substrates) were tested. The test concentration was 10 μM. The incubation time was 10 min at 37° C. The detection method was by HPLC-MS/MS. The experiments were duplicated, and the % inhibition of the control values was averaged (FIG. 8).

The target of the next data set is T2, CYP2B6 (Homo sapiens, UniProt P20813).
T2 construct: tissue Eurofins Panlabs; host or cells: human liver microsomes
T2 sequence (P20813 1-491): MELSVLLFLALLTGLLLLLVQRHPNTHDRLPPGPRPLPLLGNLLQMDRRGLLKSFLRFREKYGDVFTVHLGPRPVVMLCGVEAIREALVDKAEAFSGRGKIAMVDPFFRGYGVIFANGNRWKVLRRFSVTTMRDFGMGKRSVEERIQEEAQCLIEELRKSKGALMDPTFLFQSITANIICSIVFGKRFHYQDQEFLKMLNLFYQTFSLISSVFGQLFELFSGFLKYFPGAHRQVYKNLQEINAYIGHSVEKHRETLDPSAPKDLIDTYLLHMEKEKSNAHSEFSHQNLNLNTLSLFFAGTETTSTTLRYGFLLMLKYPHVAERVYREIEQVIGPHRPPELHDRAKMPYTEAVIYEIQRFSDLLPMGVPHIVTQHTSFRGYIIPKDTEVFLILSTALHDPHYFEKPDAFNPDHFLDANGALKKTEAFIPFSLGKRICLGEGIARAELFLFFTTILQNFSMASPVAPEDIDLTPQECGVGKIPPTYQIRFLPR
Briefly: CYP2B6 inhibition (HLM, bupropion substrate). The conditions noted are these: 10 μM, 10 min at 37° C. The data set is classed as in vitro ADME. As to the method:
as §1

The next data set addresses T3, CYP2C9 (Homo sapiens, UniProt P11712).
T3 construct: tissue Eurofins Panlabs; host or cells: human liver microsomes
The data set is described as follows: CYP2C9 inhibition (HLM, diclofenac substrate). It counts as in vitro ADME. The conditions noted are these: 10 μM, 10 min at 37° C. As to the method:
as §1

The next data set deals with T4, CYP2D6 (Homo sapiens, UniProt P10635).
T4 construct: tissue Eurofins Panlabs; host or cells: human liver microsomes
The data set is described as follows: CYP2D6 inhibition (HLM, dextromethorphan substrate). It counts as in vitro ADME. The conditions noted are these: 10 μM, 10 min at 37° C. As to the method: as §1

In another data set the test system is CYP3A. The data set is described as follows: CYP3A inhibition (HLM, midazolam and testosterone substrates). The conditions noted are these: 10 μM, 10 min at 37° C. The data set is classed as in vitro ADME, human. As to the method:
as §1

A further data set can be described thus: Plasma protein binding. The data set is classed as in vitro ADME.
A short description of data set [1]: Metabolic stability in human liver microsomes (LC-MS/MS). It counts as in vitro ADME. The conditions noted are these: for 90 min. As for the experimental part:
This was accomplished by incubating 1 with the microsomes and monitoring its disappearance with time using LC-MS/MS. Terfenadine was run in similar condition as a positive control.
(Microsomes from liver hold many membrane-bound enzymes, among them those of drug oxidation.)

Data set [2] deals with glucose metabolism in the hippocampus. The data set is described as follows: MicroPET imaging with 18FDG: cocaine-induced increases in glucose metabolism in freely moving rats. The data set is classed as in vivo, rat. The conditions noted are these: 18FDG microPET, statistical parametric map, p<0.00001, Hydrochloride. The source says: In addition to labeled raclopride studies, [^18F]-2′-fluoro-2′-deoxy-D-glucose (^18FDG) and microPET were also used to examine the regional effects of 1 on cocaine-induced increases in glucose metabolism. ^18FDG is an analogue of glucose that gets taken up into neurons (or any cells in the human body) just like glucose. However, after ^18FDG is phosphorylated, the corresponding 6′-phosphate cannot be further metabolized in the glycolytic pathway and remains in cells. Consequently, human PET studies have used ^18 FDG for decades to map the brain. […] When a human or a rat receives a psychostimulant like cocaine, dopamine floods the synapse, causing post-synaptic neurons to fire frantically. Because this neuronal firing requires energy in the form of glucose, the result is that brain glucose metabolism increases in specific brain regions. The effect of 1 on cocaine-induced increases in glucose metabolism in freely moving rats was determined using statistical parametric mapping, in which all of the images from the cocaine-only animals were added together and then compared to the images obtained from the same animals that received 1 and cocaine. A statistical threshold (p<0.00001) was set, and a statistical parametric map, an image showing all the pixels that were statistically different between the two conditions, was generated and then overlaid on an MRI of the rat brain (FIG. 11). […]

Structures are written as SMILES. “Also recorded” adds a separate entry of the source. Where a name gives a salt, the structure may show the parent alone.

T4 sequence (P10635 whole entry): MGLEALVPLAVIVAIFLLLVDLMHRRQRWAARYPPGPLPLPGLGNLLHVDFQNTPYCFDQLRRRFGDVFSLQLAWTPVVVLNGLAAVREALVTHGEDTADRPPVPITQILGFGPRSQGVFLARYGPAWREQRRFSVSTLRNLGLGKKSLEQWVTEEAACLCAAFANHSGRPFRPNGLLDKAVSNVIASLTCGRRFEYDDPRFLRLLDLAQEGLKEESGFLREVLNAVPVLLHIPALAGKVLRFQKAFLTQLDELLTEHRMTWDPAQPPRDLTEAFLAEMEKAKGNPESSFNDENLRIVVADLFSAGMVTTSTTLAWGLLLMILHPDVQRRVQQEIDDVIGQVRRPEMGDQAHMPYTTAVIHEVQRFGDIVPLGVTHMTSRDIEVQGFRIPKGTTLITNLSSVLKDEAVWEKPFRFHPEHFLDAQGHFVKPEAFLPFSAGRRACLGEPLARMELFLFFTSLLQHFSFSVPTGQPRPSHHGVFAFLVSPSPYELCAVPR
T3 sequence (P11712 whole entry): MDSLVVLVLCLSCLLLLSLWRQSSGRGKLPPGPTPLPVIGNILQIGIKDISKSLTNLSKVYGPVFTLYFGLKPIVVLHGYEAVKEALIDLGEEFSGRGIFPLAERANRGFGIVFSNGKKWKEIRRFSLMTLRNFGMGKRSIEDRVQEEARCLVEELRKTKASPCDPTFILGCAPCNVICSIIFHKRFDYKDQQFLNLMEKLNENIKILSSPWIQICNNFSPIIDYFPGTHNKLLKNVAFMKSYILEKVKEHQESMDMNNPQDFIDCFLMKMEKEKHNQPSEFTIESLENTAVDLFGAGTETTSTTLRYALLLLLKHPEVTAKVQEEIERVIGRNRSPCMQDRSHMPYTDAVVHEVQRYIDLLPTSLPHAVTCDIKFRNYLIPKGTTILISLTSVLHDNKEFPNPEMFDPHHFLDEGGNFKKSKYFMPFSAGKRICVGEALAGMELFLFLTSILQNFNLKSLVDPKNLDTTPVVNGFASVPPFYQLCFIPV

As to `N[C@H]1C=C(C(=O)O)CC1=C(F)F` [Compound 1, (S)-3-Amino-4-(difluoromethylenyl)cyclopent-1-ene-1-carboxylic acid Hydrochloride], at CYP1A, the “inhibition or induction of CYP 1A” value was “does not inhibit or induce”. Besides, at CYP2B6, the “inhibition or induction of CYP 2B6” value is listed as “does not inhibit or induce”. The “inhibition or induction of CYP 2C9” value against CYP2C9 is “does not inhibit or induce”. In addition, on CYP2D6, the “inhibition or induction of CYP 2D6” value is listed as “does not inhibit or induce”. Moreover, the “inhibition or induction of CYP 3A” value in the data set with CYP3A is reported as “does not inhibit or induce”. In addition, the unbound share (fraction unbound) (in general, the share of the substance not bound to proteins or other matrix) in “Plasma protein binding” was 0.73. In addition, in data set [1], the “metabolic stability in HLM” value is on record as “stable”. In data set [2], the “cocaine-induced activation (metabolic demand) in the hippocampus” value was “attenuated; also recorded: all gone”.
